Laboratory results taken from US10716778B2, “Use of compounds that are able to increase the serum IGF-1 level for the preparation of a therapeutical composition for treatment of various disease states associated with a reduced IGF-1 serum level in humans and animals” (VEIJLEN N.V., priority 2003, dated 2020).
“And” between values parts separate entries of the source, which are not always exact repeats. Equal entries are not always repeated.

What was measured:
[1] = test system: IGF-1; assay: Plasma IGF-1 level in eight CFS patients treated with the composition (Example 1); format: in vivo, human
Method: Eight patients suffering from severe chronic fatigue syndrome (CFS) were studied over a 5- to 7-month period. In this period, they were treated with a therapeutical composition of the disclosure in the form of a food supplement, which comprised IAA as the active ingredient. All subjects were unable to do their job or to perform very light physical exercise.
Before entering the study, the subjects underwent a careful medical examination to exclude any other disease. Blood was assayed for insulin-like growth factor 1 (IGF-1) and its major binding protein IGF-BP3 was sampled at 0, 1, 3 and 5 to 7 months of treatment because the total amount of IGF-1 in serum minus the amount of IGF-BP3 is the amount of free IGF-1. Free IGF-1 is the active serum fraction. Also at 0, 1, 3 and 5 to 7 months, job participation and physical activities were registered and calculated as percentage of normal, before disease pattern.
Eight women varying in age from 25 to 53 years having severe complaints of fatigue that made it impossible to function normally, both at work and in free time. All reported an excessive need for sleep, which was never refreshing even though it was prolonged (more than 12 hours). After excluding all other diseases and infections, they were all diagnosed for CFS.
Blood samples of 20 ml were taken and liver and kidney functions, the red and white hemogram, IGF-1 and IGF-BP3 determined. The patients took 1000 mg/day (corresponding to 40 mg IAA and 960 mg salt and WPC 70) of the composition of the disclosure for 4 weeks. After this, the dosage was reduced by 250 mg (corresponding to 10 mg IAA) every 2 weeks to 750 mg/day, 500 mg/day 250 mg/day, respectively. […]
At the start of the study and at each check-up point, the work participation and physical activity pattern were scored on a scale from 1 to 10 and plotted as the percentage of the patient's normal activities. […] IGF-BP3 was determined by means of an immunoassay (DSL-5600 ACTIVE™, DSL Deutschland GmbH, Germany) having an intra-assay variance of 4.4% and an inter-assay variance of 6.6%. […]

[2] = test system: IGF-1; assay: IgF-1 level in type 2 diabetic patients during medication with IAA (Example 4); format: in vivo, human
Excerpt: Five male type 2 diabetic patients took part in the study. They were all very difficult to regulate. When the study started, the average HbA1c was to be approximately 9.0%. The patients had no other clinical problems. In addition, the IgF-BP3/IgF-1 ratio had to be over 10. The age of the subjects were between 45 years and 75 years with an average of 58. The period of the investigation was 6 months. […] The following parameters were checked: IGF-1 and IGF-PB-3. Also, at the start, safety parameters (liver tests, hematology) were determined. Every 8 weeks, HbA1c was determined.
(§1) All samples from one subject were analyzed in the same run to avoid intra-assay variability. Quantification of IGF-1 was performed using an immunoradiometric assay (IRMA) (DSL-5600 ACTIVE™, DSL, Germany GmbH, Germany). Intra- and inter-assay variance was: 4.0% and 9.2% and 1.5% for IGF-1. The Hba1c was analyzed on HPLC Menarine HA 81-60.
(§2) The total work output of every subject was calculated with a 2-way ANOVA for repeated measures and the hormone values were analyzed with the Wilcoxon test. In all cases, a p value of <0.05 was accepted as significant.

[3] = test system: HbA1c; assay: HbA1c in type 2 diabetic patients during medication with IAA (Example 4); format: in vivo, human; conditions: for HbA1c: acetic acid
Excerpt: Five male type 2 diabetic patients took part in the study. They were all very difficult to regulate. When the study started, the average HbA1c was to be approximately 9.0%. The patients had no other clinical problems. In addition, the IgF-BP3/IgF-1 ratio had to be over 10. The age of the subjects were between 45 years and 75 years with an average of 58. The period of the investigation was 6 months. At the start of the study, after 2 month, 4 months and at the end at 6 months, blood was taken. The following parameters were checked: IGF-1 and IGF-PB-3. Also, at the start, safety parameters (liver tests, hematology) were determined. Every 8 weeks, HbA1c was determined.
as §1, §2

[4] = test system: growing laying hens; assay: Weight and weight gain of growing laying hens treated with IAA (Example 8); format: in vivo; set-up: unit not given here
Method: Growing laying hens of 10 weeks old were selected in the flock to create four groups of ten hens: • Group GB: Ten normally growing hens, not treated • Group GNA: Ten normally growing hens, treated with 10 mg/kg/LW IAA (LW=live weight) • Group SB: Ten poorly growing hens, not treated • Group SNA: 10 poorly growing hens, treated with 10 mg/kg/LW IAA.
In this example, not only the poor-growing birds were treated, but also normally growing animals. The birds receive daily forced oral treatment with a capsule that contains IAA. The different groups are weighed every week. Treatment is continued at least until the hens start laying, to see if the period of onset of laying is influenced by the treatment.

Substance: indole acetic acid [IAA]
- plasma IGF-1 level (mean±SD) ([1]; after 1 month): 29.5 ± 8.2 nmol/L
- plasma IGF-1 level (mean±SD) ([1]; after 5 months of treatment): 35 ± 10 nmol/L
- plasma IGF-1 level (mean±SD) ([1]; before treatment (baseline)): 18 ± 5 nmol/L
- IgF-1 level, average ([2]; Month 0 (start), average of 5 subjects, acetic acid): 10.8 nmol/L and 10.7 nmol/L
- IgF-1 level ([2]; Month 0 (start), individual subjects, acetic acid): 11.1 nmol/L and 9.6 nmol/L and 10.4 nmol/L and 11.2 nmol/L and 11.3 nmol/L
- IgF-1 level, average ([2]; Month 1, average of 5 subjects): 11.4 nmol/L
- IgF-1 level ([2]; Month 1, individual subjects, acetic acid): 12.5 nmol/L and 10.1 nmol/L and 10.8 nmol/L and 11.6 nmol/L and 12.0 nmol/L
- IgF-1 level, average ([2]; Month 2, average of 5 subjects): 12.0 nmol/L
- IgF-1 level ([2]; Month 2, individual subjects, acetic acid): 13.1 nmol/L and 10.6 nmol/L and 11.6 nmol/L and 11.9 nmol/L and 12.6 nmol/L
- IgF-1 level, average ([2]; Month 3, average of 5 subjects): 12.5 nmol/L
- IgF-1 level ([2]; Month 3, individual subjects, acetic acid): 13.8 nmol/L and 11.1 nmol/L and 12.1 nmol/L and 12.3 nmol/L and 13.0 nmol/L
- IgF-1 level, average ([2]; Month 4, average of 5 subjects): 13.0 nmol/L
- IgF-1 level ([2]; Month 4, individual subjects, acetic acid): 14.3 nmol/L and 11.8 nmol/L and 12.6 nmol/L and 12.8 nmol/L and 13.5 nmol/L
- IgF-1 level, average ([2]; Month 5, average of 5 subjects): 13.5 nmol/L
- IgF-1 level ([2]; Month 5, individual subjects, acetic acid): 14.9 nmol/l and 12.1 nmol/l and 13.3 nmol/l (2×) and 13.9 nmol/l
- IgF-1 level, average ([2]; Month 6, average of 5 subjects): 14.1 nmol/L
- IgF-1 level ([2]; Month 6, individual subjects, acetic acid): 15.2 nmol/L and 12.9 nmol/L and 13.9 nmol/L and 14.4 nmol/L and 14.3 nmol/L
- HbA1c, average ([3]; Week 0 (start), average of 5 subjects): 9.0%
- HbA1c ([3]; Week 0 (start), individual subjects): 9.6% and 9.0% and 9.1% and 8.6% and 8.8%
- HbA1c, average ([3]; Week 8, average of 5 subjects): 8.3%
- HbA1c ([3]; Week 8, individual subjects): 8.9% and 8.2% and 8.3% (2×) and 7.6%
- HbA1c, average ([3]; Week 16, average of 5 subjects): 7.4%
- HbA1c ([3]; Week 16, individual subjects): 8.0% and 7.1% and 7.4% and 6.9% and 7.6%
- HbA1c, average ([3]; Week 24, average of 5 subjects): 6.7%
- HbA1c ([3]; Week 24, individual subjects): 7.4% and 6.4% and 6.6% and 6.3% and 6.8%
- weight ([4]; group GNA (normally growing hens, 10 mg/kg/LW IAA daily oral capsule), weekly weighing 1): 740
- total weight gain ([4]; group GNA, untreated GB 407.5): 482
- weight ([4]; group GNA, weekly weighing 2): 883
- weight ([4]; group GNA, weekly weighing 3): 996
- weight ([4]; group GNA, weekly weighing 4): 1095
- weight ([4]; group GNA, weekly weighing 5): 1222
- weight gain ([4]; group GNA, weighing 2 vs 1): 143
- weight gain ([4]; group GNA, weighing 3 vs 2): 113
- weight gain ([4]; group GNA, weighing 4 vs 3): 99
- weight gain ([4]; group GNA, weighing 5 vs 4): 127
- weight ([4]; group SNA (poorly growing hens, 10 mg/kg/LW IAA daily oral capsule), weekly weighing 1): 489.5
- total weight gain ([4]; group SNA, untreated SB 408.5): 505.5
- weight ([4]; group SNA, weekly weighing 2): 598
- weight ([4]; group SNA, weekly weighing 3): 718
- weight ([4]; group SNA, weekly weighing 4): 885
- weight ([4]; group SNA, weekly weighing 5): 995
- weight gain ([4]; group SNA, weighing 2 vs 1): 108.5
- weight gain ([4]; group SNA, weighing 3 vs 2): 120
- weight gain ([4]; group SNA, weighing 4 vs 3): 167
- weight gain ([4]; group SNA, weighing 5 vs 4): 110
